The conditions of data set [1]: human, in vivo; cited from earlier work.
The subject of data set [2] is mice. Nature of the data set: Catalepsy (rod test) in mice. Format: in vivo. Particulars: mice (FIG. 5). On the procedure: (§1) Male Non-Swiss Albino mice (Harlan Sprague-Dawley) were housed (4 mice/cage) in rooms with temperature and humidity controlled and water and food (Harlan Teklad) freely available. Mice were kept on a 12-hr light:dark cycle.
A custom-built 8-mm rod that is raised 3.5 cm from the lab benchtop was used. 61KS19 (10 mg/kg) or haloperidol (1 mg/kg) were administered i.p. 60 min before the start of the session. The forepaws of each animal is placed on the rod and the time to step down is measured. If the animal steps off immediately, another attempt is made until the animal stays on for more than 10 sec or 10 attempts have been made. A maximum of 2 min is allowed at which time the animal is taken away from the rod and returned to the homecage. Each dose or dose combination was tested in a separate group of animals (n=6). Averages and standard errors were calculated and compared using an ANOVA and post-hoc Dunnett's t-tests.

The target of data set [3] is T1, M1 muscarinic receptor (Homo sapiens, UniProt P11229).
T1 construct: expressed in transfected cells; host or cells: NIH-3T3 cells (ATCC CRL 1658)
T1 sequence (P11229 1-460): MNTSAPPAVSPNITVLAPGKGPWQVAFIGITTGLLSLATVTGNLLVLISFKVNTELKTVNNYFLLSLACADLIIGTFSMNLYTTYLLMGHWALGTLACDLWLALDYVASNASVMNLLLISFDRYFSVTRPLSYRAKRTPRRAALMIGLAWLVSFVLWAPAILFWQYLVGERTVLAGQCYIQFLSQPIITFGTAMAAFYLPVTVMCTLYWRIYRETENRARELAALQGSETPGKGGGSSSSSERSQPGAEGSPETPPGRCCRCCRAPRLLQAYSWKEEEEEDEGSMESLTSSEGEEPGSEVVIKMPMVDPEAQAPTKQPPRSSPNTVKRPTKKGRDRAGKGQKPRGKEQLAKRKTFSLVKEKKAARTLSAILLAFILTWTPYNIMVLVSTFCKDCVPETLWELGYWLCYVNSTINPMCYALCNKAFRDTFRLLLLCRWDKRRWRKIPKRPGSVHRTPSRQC
Description: R-SAT functional assay, muscarinic M1 receptor. Format: cell-based. Particulars: for Emax: NIH3T3, relative to maximum response to carbachol, read-out: M1 % Efficacy; for Emax / EC50: R-SAT, transfected NIH-3T3 cells; for EC50: read-out: M1 pEC50 (converted). On the procedure: (§2) The M1 and M4 muscarinic receptor subtypes were cloned substantially as described by Bonner et al., (1987) Science […] p. 527 and Bonner et al, (1988) Neuron 1, p. 403. R-SAT assays were carried out substantially as described in U.S. Pat. No. 5,707,798 and by Braüner-Osbome, H. B. and Brann, M. R. (1995), Eur. J. Pharmacol. 295:93-102. NIH-3T3 cells (available from the American Type Culture Collection as ATCC CRL 1658) were transfected with plasmid DNA encoding the m1 and m4 receptors and plasmid DNA encoding β-galactosidase. Transfected cells were grown in the presence of between 1 nM and 40 μM of the test compound for 5 days. On day 5, the cells were lysed using 0.5% nonidet-P and β-galactosidase expression was quantified using the chromogenic substrate o-nitrophenyl-p-D-galactoside (ONGP).
(§3) Data were normalized relative to the maximum response of the cells to the muscarinic agonist carbachol, and the following equation was fitted to the data: response=minimum+(maximum−minimum)/(1+([ligand]/EC50)) % Efficacy was defined as (maximum−minimum)/(maximum response of cells to carbachol). pEC50=−log (EC50). Where data gave a bell-shaped curve, “maximum” was defined as the highest observed response.

Data set [4] deals with T2, human dopamine D2 receptor (Homo sapiens, UniProt P14416).
T2 construct: expressed in transfected cells; host or cells: tSA cells
Nature of the data set: [3H]-Spiperone radioligand binding to D2 receptor membranes. Particulars: tSA cell membranes, 150 pM [3H]-Spiperone; read-out: D2 [3H]Spiperone pIC50 (converted). The method, then: The D2 dopamine receptor subtype was cloned substantially as described by Stormann, Gdula, Weiner and Brann, 1990 [Mol Pharmacol 37, 1-6]. Cell membranes expressing the D2 receptor were prepared by transfecting tSA cells (Chahine, M., Bennet, P. B., George, A. L., Horn, R. (1994) Pfluegers Arch. 427, 136-142) with 10 μg plasmid DNA encoding the human dopamine D2 receptor and 40 μl Superfect (Qiagen). The cells were harvested 48 hours and transfection and membranes were prepared by homogenizing the cells using a Polytron harvester in 20 mM Hepes, 10 mM EDTA, pH 7.4. The homogenate was centrifuged for 30 minutes at 37,000 g. The pellet was homogenized again in 60 ml 20 mM Hepes, 5 mM EDTA. The homogenate was centrifuged for 30 minutes at 37,000 g. The supernatant was discarded. The pellet was homogenized again in 10 ml 20 mM Hepes, 1 mM EDTA. The resultant membranes were frozen at −80° C.
The membranes were combined with 150 pM [^3H]-Spiperone (Amersham-Pharmacia, 107 Ci/mmol) and ligand concentrations between 1 nM and 10 μM, or haloperidol concentrations between 0.1 nM and 1 μM in 460 μl 20 mM Hepes, 1 mM EDTA, 0.1% (w/v) bovine serum albumin. Nonspecific binding was defined as binding in the presence of 1 μM haloperidol. The membranes were incubated for 4 hours at 37° C., and then filtered onto Packard GFB Filterplates using a Packard harvester. The membranes were dried and 50 μl Microscint (Packard) was added to each well. The amount of bound radioligand was quantified using a Packard Topcount scintillation counter.
Data were normalized relative to the maximum inhibition of [^3H]-Spiperone binding by 1 μM haloperidol, and the following equation was fitted to the data: % inhibition=minimum+(maximum−minimum)/(1+([ligand]/[IC50])) % inhibition was defined as (maximum−minimum)/(maximum response of cells to haloperidol). pIC50=−log (IC50). NT=not tested. Results

The target of data set [5] is T3, M4 muscarinic receptor (Homo sapiens, UniProt P08173).
T3 construct: expressed in transfected cells; host or cells: NIH-3T3 cells (ATCC CRL 1658)
T3 sequence (P08173 1-479): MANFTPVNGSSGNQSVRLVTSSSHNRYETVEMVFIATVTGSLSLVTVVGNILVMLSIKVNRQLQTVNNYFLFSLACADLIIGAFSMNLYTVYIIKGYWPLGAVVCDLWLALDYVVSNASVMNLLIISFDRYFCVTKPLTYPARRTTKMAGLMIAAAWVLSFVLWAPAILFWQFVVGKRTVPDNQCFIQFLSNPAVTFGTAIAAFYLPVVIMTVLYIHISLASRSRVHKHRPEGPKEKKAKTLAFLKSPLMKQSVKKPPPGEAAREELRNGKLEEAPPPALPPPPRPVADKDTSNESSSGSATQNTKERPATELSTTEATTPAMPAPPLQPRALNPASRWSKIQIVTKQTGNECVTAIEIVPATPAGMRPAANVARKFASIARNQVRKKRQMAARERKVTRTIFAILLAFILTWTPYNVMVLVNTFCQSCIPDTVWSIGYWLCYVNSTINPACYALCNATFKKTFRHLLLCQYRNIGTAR
Description: R-SAT functional assay, muscarinic M4 receptor. It is filed as cell-based. To be noted: for Emax: NIH3T3, relative to maximum response to carbachol, read-out: M4 % Efficacy; for Emax / EC50: R-SAT, transfected NIH-3T3 cells; for EC50: read-out: M4 pEC50 (converted). On the procedure:
as §2, §3

Data set [6] relates to mice. Description: MK-801 (dizocilpine)-induced hyperactivity in mice. It is filed as in vivo. Particulars: 10 mg/kg i.p., mice (FIG. 4). The method, then:
as §1
(§4) Plastic 20×20×30 cm activity cages were equipped with photocell beams (AccuScan Instruments). For spontaneous activity, 61KS19 (1, 3 and 10 mg/kg) was administered alone i.p. 30 min before the session. For hyperactivity experiments, mice were treated with 0.3 mg/kg dizocilpine, 3.0 mg/kg d-amphetamine or 3.0 mg/kg scopolamine i.p. 15 min before the session (15 min after 61KS19). Locomotor data were collected during a 15 min session without habituation in a lit room. Each dose combination was tested in a separate group of animals (n=8). Distance traveled (cm) was calculated and averaged followed by ANOVA and post-hoc Dunnett's t-test comparisons.

The test system of data set [7] is mice. Nature of the data set: Scopolamine-induced hyperactivity in mice. Format: in vivo. Particulars: 1, 3 and 10 mg/kg i.p., mice (FIG. 3). On the procedure:
as §1, §4

In data set [8] the test system is mice. Nature of the data set: Amphetamine-induced hyperactivity in mice. It is filed as in vivo. To be noted: 3 and 10 mg/kg i.p., mice (FIG. 2). The method, then: as §1, §4
Data set [9] has as its system mice. Nature of the data set: Spontaneous locomotor activity in mice. It is filed as in vivo. To be noted: 10 mg/kg i.p., mice (FIG. 1). On the procedure:
as §1, §4

The test system of data set [10] is dopamine receptors. To be noted: Shannon et al.; cited from earlier work.

Each structure is given as a SMILES string.

T2 sequence (P14416 1-414 isoform P14416-2): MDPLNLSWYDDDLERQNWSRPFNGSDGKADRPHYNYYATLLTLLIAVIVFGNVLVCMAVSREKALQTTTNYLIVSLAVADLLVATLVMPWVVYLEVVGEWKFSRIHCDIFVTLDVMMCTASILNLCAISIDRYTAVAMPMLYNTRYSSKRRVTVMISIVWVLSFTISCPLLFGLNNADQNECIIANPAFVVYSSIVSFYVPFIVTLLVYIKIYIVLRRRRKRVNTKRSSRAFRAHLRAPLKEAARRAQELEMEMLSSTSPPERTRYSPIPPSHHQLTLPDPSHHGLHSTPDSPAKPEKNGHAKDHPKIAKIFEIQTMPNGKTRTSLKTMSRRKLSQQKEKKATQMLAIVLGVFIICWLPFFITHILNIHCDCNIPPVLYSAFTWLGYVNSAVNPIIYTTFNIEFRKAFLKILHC

With `Nc1c2c(nc3ccccc13)CCCC2` [tacrine], the “patients with elevated liver transaminases” value in data set [1] is “about 30%”.

`O=C(CCCN1CCC(O)(c2ccc(Cl)cc2)CC1)c1ccc(F)cc1` [haloperidol, reference compound]: in data set [2] (haloperidol 1 mg/kg i.p.), the induction of catalepsy result is recorded as “unlike haloperidol”.

Regarding `CCCCC=C1CCN(CCCn2c(=O)[nH]c3ccccc32)CC1` [Compound 61KS-13, 1-(3-[4-Pentylidenepiperidino]propyl)-1,3-dihydrobenzimidazole-2-one], in [3], the “binding efficacy for the M1 receptor subtype” value is “high binding efficacy”, the Emax was 106% and the EC50 is 39.8 nM. Further, in [4], the IC50 is 398 nM. In addition, in data set [5], the “binding efficacy for the M4 receptor subtype” value was “high binding efficacy”, the Emax was 100% and the EC50 was 39.8 nM.

`CCCCC1CCN(CCCn2c(=O)[nH]c3ccccc32)CC1` [Compound 61KS-19, 1-(3-[4-Butylpiperidino]propyl)-1,3-dihydrobenzimidazol-2-one]: the MK-801-induced hyperactivity result in data set [6] is reported as “reduction of MK-801-induced hyperactivity”. For the same compound, in [3], the “binding efficacy for the M1 receptor subtype” value is “high binding efficacy”, the Emax was 115% and the EC50 is 25.1 nM. Besides, in data set [7], the scopolamine-induced hyperactivity entry was “reduction of scopolamine-induced hyperactivity”. Moreover, in [2] (10 mg/kg i.p.), the induction of catalepsy entry was “failed to induce catalepsy”. Besides, the amphetamine-induced hyperactivity result in data set [8] is “reduction of amphetamine-induced hyperactivity”. Also, in data set [4], the IC50 was 794 nM. Further, in data set [5], the “binding efficacy for the M4 receptor subtype” value is recorded as “high binding efficacy”, the Emax is 141% and the EC50 was 31.6 nM. In addition, the spontaneous locomotor activity result in [9] is recorded as “reduction of spontaneous locomotor activity”.

Turning to `CCCCC1CCN(C[C@@H](C)Cn2c(=O)sc3ccccc32)CC1` [Compound 85LM91-78R, 3-(3-(4-Butylpiperidin-1-yl)-(R)-2-methylpropyl)-3H-benzothiazol-2-one], the Emax came to 99% in data set [3] and 141% in data set [5]. Further, the EC50 was 31.6 nM in data set [3] and 794 nM in [5]. For the same compound, the IC50 in data set [4] is 50.1 nM.

In the case of `CCCCCCOc1nsnc1C1=CCCN(C)C1` [Xanomeline], in data set [10], the “affinity for dopamine receptors” value is “little or no affinity for dopamine receptors”.

(Values after US7291611B2, “Benzimidazolidinone derivatives as muscarinic agents” (ACADIA Pharmaceuticals Inc., priority 2001, dated 2007).)
